In ChEMBL document CHEMBL1275304, “Use of phosphonyl carbanions in the synthesis of anti-inflammatory active phosphorus-containing fused heterocycles and relevance phosphonates” (Eur J Med Chem, 2010) one finds LD50, inhibition in vivo and Activity data, which are given here for eleven molecules.

Data set [1] can be described thus: Acute toxicity in ip dosed albino mouse after 24 hrs. Conditions: in vivo. The class given is organism-based.
The test system of data set [2] is Rattus norvegicus. The experiment in a line: Antiinflammatory activity against carrageenan-induced fisher 344 rat paw edema model assessed as reduction of paw volume at 50 mg/kg, ip after 3.5 hrs by plethysmometer. The data set is classed as functional. As to conditions: fisher 344, ip, route intraperitoneal. In general terms: Carrageenan injected into the paw causes an acute inflammation.

Data set [3] concerns Mus musculus. The experiment in a line: Toxicity in albino mouse assessed as mortality at 500 to 1000 mg/kg, ip after 24 hrs. The data set is classed as organism-based. As to conditions: in vivo. Also noted: dose 500-1000 mg/kg, route intraperitoneal.
Data set [4] has as its system Mus musculus. Briefly: Toxicity in albino mouse assessed as toxic symptom at 500 to 1000 mg/kg, ip after 24 hrs. The class given is organism-based. Also noted: dose 500-1000 mg/kg, route intraperitoneal. Conditions: in vivo.
The test system of data set [5] is Rattus norvegicus. The experiment in a line: Antiinflammatory activity against carrageenan-induced fisher 344 rat paw edema model assessed as inhibition of granuloma. The class given is functional, organism-based.
The subject of data set [6] is Rattus norvegicus. Briefly: Antiinflammatory activity against carrageenan-induced fisher 344 rat paw edema model assessed as inhibition of granuloma at 100 mg/kg. The class given is functional.

For the molecule `COc1ccc2c(c1)c(CC(=O)O)c(C)n2C(=O)c1ccc(Cl)cc1` [INDOMETHACIN], the LD50 (in general, the dose expected to kill half of the subjects tested) at 24 h in data set [1] is > 300 µmol/kg. The inhibition in vivo (commonly the share of the control response that was lost under treatment) at 50 mg/kg with Rattus norvegicus [2] was 68.4%.
As to `CCOC(=O)C1=c2cc(C(C(=O)OCC)P(=O)(OCC)OCC)sc2=C(C)OP1(=O)OCC` (stereo not drawn), the Activity entry in the data set with Mus musculus [3] is “Non-toxic”; in the data set with Mus musculus [4], “Non-toxic”; in the data set on Rattus norvegicus [5] it was “Dose-dependent effect”. Also, the LD50 at 24 h in data set [1] was > 300 µmol/kg. In the data set with Rattus norvegicus [2], the inhibition in vivo at 50 mg/kg worked out at 76.1%.
In the case of `CCOP1(=O)OC2(C)C(=O)C=CC2(C)C1C(=O)OC` (stereo not drawn), the inhibition in vivo at 100 mg/kg in the data set on Rattus norvegicus [6] was determined as 63.2%. In addition, the LD50 at 24 h in data set [1] was > 300 µmol/kg. The inhibition in vivo at 50 mg/kg with Rattus norvegicus [2] turned out to be 63.2%.
For `CCOP(=O)(/C=C\c1cc2c(s1)=C(C)OP(=O)(OCC)C=2C)OCC` (stereo not drawn), the Activity entry with Mus musculus [3] and in the data set with Mus musculus [4] was “Non-toxic” in each case. In addition, the LD50 at 24 h in data set [1] is > 300 µmol/kg. Also, in the data set on Rattus norvegicus [2], the inhibition in vivo at 50 mg/kg came out at 87.6%.
`CCOC(=O)C1C2(C)C=CC(=O)C2(C)OP1(=O)OCC` (stereo not drawn): in the data set with Rattus norvegicus [6], the inhibition in vivo at 100 mg/kg came to 59.7%. Besides, the LD50 at 24 h in data set [1] is > 300 µmol/kg. Further, in the data set with Rattus norvegicus [2], the inhibition in vivo at 50 mg/kg stood at 59.7%.
For `CCOP1(=O)OC2(C)C(=O)C=CC2(C)C1C#N` (stereo not drawn), in the data set on Rattus norvegicus [6], the inhibition in vivo at 100 mg/kg came to 66.6%. For the same molecule, the LD50 at 24 h in data set [1] was > 300 µmol/kg. The inhibition in vivo at 50 mg/kg in the data set on Rattus norvegicus [2] was found to be 66.6%.
`CCOP1(=O)OC(C)=c2sc(C(C(=O)OC)P(=O)(OCC)OCC)cc2=C1C(=O)OC` (stereo not drawn): the figures for the Activity entry in the data set with Mus musculus [3], with Mus musculus [4] and with Rattus norvegicus [5] were “Non-toxic”, “Non-toxic” and “Dose-dependent effect”, respectively. Moreover, the LD50 at 24 h in data set [1] is > 300 µmol/kg. Further, the inhibition in vivo at 50 mg/kg in the data set on Rattus norvegicus [2] was 75.9%.
As for `CCOP1(=O)OC(C)=c2sc(Br)cc2=C1C#N` (stereo not drawn), the inhibition in vivo at 100 mg/kg in the data set with Rattus norvegicus [6] amounted to 62.8%. The LD50 at 24 h in data set [1] is > 300 µmol/kg. Besides, the inhibition in vivo at 50 mg/kg in the data set on Rattus norvegicus [2] came to 62.8%.
As to `CCOP1(=O)OC(C)=c2sc(C(C#N)P(=O)(OCC)OCC)cc2=C1C#N` (stereo not drawn), the Activity entry in the data set with Mus musculus [3] and in the data set on Mus musculus [4] was “Non-toxic” in each case. In data set [1], the LD50 at 24 h was > 300 µmol/kg. Moreover, the inhibition in vivo at 50 mg/kg in the data set on Rattus norvegicus [2] was determined as 81.1%.
With `CCOC(=O)C1=c2cc(Br)sc2=C(C)OP1(=O)OCC` (stereo not drawn), the inhibition in vivo at 100 mg/kg with Rattus norvegicus [6] is 60.4%. The LD50 at 24 h in data set [1] was > 300 µmol/kg. For the same molecule, in the data set on Rattus norvegicus [2], the inhibition in vivo at 50 mg/kg came to 60.4%.
Take `CCOP1(=O)OC(C)=c2sc(Br)cc2=C1C(=O)OC` (stereo not drawn): the inhibition in vivo at 100 mg/kg in the data set with Rattus norvegicus [6] turned out to be 68.1%. Further, the 50% lethal dose (LD50) at 24 h in data set [1] is > 300 µmol/kg. Further, the inhibition in vivo at 50 mg/kg in the data set with Rattus norvegicus [2] stood at 68.1%.
